BindingDB's records for doi:10.1002/cbic.200500089 (Progen Industries, 2005)

Columns and labels:
[1] = biological target: Fibroblast growth factor 2 (Homo sapiens, UniProt P09038); assay: Binding Assay; settings: pH 7.4
Method: (§1) Human FGF-1 and FGF-2 were purchased from R&D Systems, Inc. and supplied as protein (ug) dissolved in bovine serum albumin (BSA, 50ug). Surface plasmon resonance (SPR) measurements were performed on a BIA-core 3000 from BIAcore, Uppsala, Sweden and operated by the BIAcore control software.

[2] = biological target: Fibroblast growth factor 1 (Homo sapiens, UniProt P05230); assay: Binding Assay; settings: pH 7.4
Fibroblast growth factor 1, sequence (P05230 whole entry): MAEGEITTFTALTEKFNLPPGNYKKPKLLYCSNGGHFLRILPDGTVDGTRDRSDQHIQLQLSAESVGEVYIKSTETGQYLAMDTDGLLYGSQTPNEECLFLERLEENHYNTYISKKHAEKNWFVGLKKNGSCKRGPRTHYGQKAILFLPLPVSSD
Method: as §1

Fibroblast growth factor 2, sequence (P09038 143-288 limits assumed): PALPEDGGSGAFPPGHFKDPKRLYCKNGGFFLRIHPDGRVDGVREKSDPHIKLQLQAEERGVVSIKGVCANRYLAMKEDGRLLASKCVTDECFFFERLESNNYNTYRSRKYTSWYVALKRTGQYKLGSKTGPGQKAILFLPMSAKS

With `O=S(=O)(O)O[C@H]1[C@H](OS(=O)(=O)O)[C@@H](N(CCN([C@H]2C=C[C@@H](OS(=O)(=O)O)[C@@H](OS(=O)(=O)O)[C@@H]2OS(=O)(=O)O)[C@H]2C=C[C@@H](OS(=O)(=O)O)[C@@H](OS(=O)(=O)O)[C@@H]2OS(=O)(=O)O)[C@H]2C=C[C@@H](OS(=O)(=O)O)[C@@H](OS(=O)(=O)O)[C@@H]2OS(=O)(=O)O)C=C[C@H]1OS(=O)(=O)O` [Linked sulfated tetracyclitol, 2] as the molecule, how does the Kd [1] read?
The Kd was 1100 nM.

What about the Kd [2] of the same molecule?
Its Kd is 20.7 nM.

Which Kd [1] does the source give for `O=S(=O)(O)O[C@H]1[C@H](OS(=O)(=O)O)[C@@H](N(CCCN([C@H]2C=C[C@@H](OS(=O)(=O)O)[C@@H](OS(=O)(=O)O)[C@@H]2OS(=O)(=O)O)[C@H]2C=C[C@@H](OS(=O)(=O)O)[C@@H](OS(=O)(=O)O)[C@@H]2OS(=O)(=O)O)[C@H]2C=C[C@@H](OS(=O)(=O)O)[C@@H](OS(=O)(=O)O)[C@@H]2OS(=O)(=O)O)C=C[C@H]1OS(=O)(=O)O` [Linked sulfated tetracyclitol, 3] here?
Its Kd is 248 nM.

And the Kd [2]?
The Kd was 7.2 nM.

Which Kd [1] does the source give for `O=S(=O)(O)O[C@H]1[C@H](OS(=O)(=O)O)[C@@H](N(CCCCN([C@H]2C=C[C@@H](OS(=O)(=O)O)[C@@H](OS(=O)(=O)O)[C@@H]2OS(=O)(=O)O)[C@H]2C=C[C@@H](OS(=O)(=O)O)[C@@H](OS(=O)(=O)O)[C@@H]2OS(=O)(=O)O)[C@H]2C=C[C@@H](OS(=O)(=O)O)[C@@H](OS(=O)(=O)O)[C@@H]2OS(=O)(=O)O)C=C[C@H]1OS(=O)(=O)O` [Linked sulfated tetracyclitol, 4] here?
Its Kd is 161 nM.

What about the Kd [2] of the same molecule?
Its Kd is 25.4 nM.

`O=S(=O)(O)O[C@H]1[C@H](OS(=O)(=O)O)[C@@H](N(CCCCCN([C@H]2C=C[C@@H](OS(=O)(=O)O)[C@@H](OS(=O)(=O)O)[C@@H]2OS(=O)(=O)O)[C@H]2C=C[C@@H](OS(=O)(=O)O)[C@@H](OS(=O)(=O)O)[C@@H]2OS(=O)(=O)O)[C@H]2C=C[C@@H](OS(=O)(=O)O)[C@@H](OS(=O)(=O)O)[C@@H]2OS(=O)(=O)O)C=C[C@H]1OS(=O)(=O)O` [Linked sulfated tetracyclitol, 5] was tested. Which Kd [1] did it give?
The Kd was 148 nM.

What about the Kd [2] of the same molecule?
The Kd was 29.8 nM.

Which results are given for `O=S(=O)(O)O[C@H]1[C@H](OS(=O)(=O)O)[C@@H](N(CCCCCCN([C@H]2C=C[C@@H](OS(=O)(=O)O)[C@@H](OS(=O)(=O)O)[C@@H]2OS(=O)(=O)O)[C@H]2C=C[C@@H](OS(=O)(=O)O)[C@@H](OS(=O)(=O)O)[C@@H]2OS(=O)(=O)O)[C@H]2C=C[C@@H](OS(=O)(=O)O)[C@@H](OS(=O)(=O)O)[C@@H]2OS(=O)(=O)O)C=C[C@H]1OS(=O)(=O)O` [Linked sulfated tetracyclitol, 6]?
Kd [1]: 135 nM; Kd [2]: 39 nM

Which results are given for `O=S(=O)(O)O[C@H]1[C@H](OS(=O)(=O)O)[C@@H](N(CCCCCCCN([C@H]2C=C[C@@H](OS(=O)(=O)O)[C@@H](OS(=O)(=O)O)[C@@H]2OS(=O)(=O)O)[C@H]2C=C[C@@H](OS(=O)(=O)O)[C@@H](OS(=O)(=O)O)[C@@H]2OS(=O)(=O)O)[C@H]2C=C[C@@H](OS(=O)(=O)O)[C@@H](OS(=O)(=O)O)[C@@H]2OS(=O)(=O)O)C=C[C@H]1OS(=O)(=O)O` [Linked sulfated tetracyclitol, 7]?
Kd [1]: 90 nM; Kd [2]: 8 nM

Which results are given for `O=S(=O)(O)O[C@H]1[C@H](OS(=O)(=O)O)[C@@H](N(CCCCCCCCN([C@H]2C=C[C@@H](OS(=O)(=O)O)[C@@H](OS(=O)(=O)O)[C@@H]2OS(=O)(=O)O)[C@H]2C=C[C@@H](OS(=O)(=O)O)[C@@H](OS(=O)(=O)O)[C@@H]2OS(=O)(=O)O)[C@H]2C=C[C@@H](OS(=O)(=O)O)[C@@H](OS(=O)(=O)O)[C@@H]2OS(=O)(=O)O)C=C[C@H]1OS(=O)(=O)O` [Linked sulfated tetracyclitol, 8]?
Kd [1]: 108 nM; Kd [2]: 40.4 nM

Which Kd [1] does the source give for `O=S(=O)(O)O[C@H]1[C@H](OS(=O)(=O)O)[C@@H](N(CCCCCCCCCN([C@H]2C=C[C@@H](OS(=O)(=O)O)[C@@H](OS(=O)(=O)O)[C@@H]2OS(=O)(=O)O)[C@H]2C=C[C@@H](OS(=O)(=O)O)[C@@H](OS(=O)(=O)O)[C@@H]2OS(=O)(=O)O)[C@H]2C=C[C@@H](OS(=O)(=O)O)[C@@H](OS(=O)(=O)O)[C@@H]2OS(=O)(=O)O)C=C[C@H]1OS(=O)(=O)O` [Linked sulfated tetracyclitol, 9] here?
The Kd was 194 nM.

And the Kd [2]?
Its Kd is 119 nM.

Which Kd [1] does the source give for `O=S(=O)(O)O[C@H]1[C@H](OS(=O)(=O)O)[C@@H](N(CCCCCCCCCCN([C@H]2C=C[C@@H](OS(=O)(=O)O)[C@@H](OS(=O)(=O)O)[C@@H]2OS(=O)(=O)O)[C@H]2C=C[C@@H](OS(=O)(=O)O)[C@@H](OS(=O)(=O)O)[C@@H]2OS(=O)(=O)O)[C@H]2C=C[C@@H](OS(=O)(=O)O)[C@@H](OS(=O)(=O)O)[C@@H]2OS(=O)(=O)O)C=C[C@H]1OS(=O)(=O)O` [Linked sulfated tetracyclitol, 10] here?
Its Kd is 448 nM.

What about the Kd [2] of the same molecule?
The Kd was 115 nM.
